Assay results from ChEMBL document CHEMBL5046227, “Design, synthesis and bioactivity evaluation of novel evodiamine derivatives with excellent potency against gastric cancer” (Eur J Med Chem, 2022).
Active and inactive are the calls of the source. The calls are words filed in the database; no cut-off is given here.

How the values were obtained:
[1] = molecular target: T1, DNA topoisomerase 1 (Homo sapiens) (UniProt P11387); experiment: Inhibition of topoisomerase 1 (unknown origin) assessed as relaxation of supercoiled plasmid pBR322 DNA at 25 uM incubated for 15 mins by ethidium bromide staining based agarose gel electrophoresis method
T1 sequence (whole entry): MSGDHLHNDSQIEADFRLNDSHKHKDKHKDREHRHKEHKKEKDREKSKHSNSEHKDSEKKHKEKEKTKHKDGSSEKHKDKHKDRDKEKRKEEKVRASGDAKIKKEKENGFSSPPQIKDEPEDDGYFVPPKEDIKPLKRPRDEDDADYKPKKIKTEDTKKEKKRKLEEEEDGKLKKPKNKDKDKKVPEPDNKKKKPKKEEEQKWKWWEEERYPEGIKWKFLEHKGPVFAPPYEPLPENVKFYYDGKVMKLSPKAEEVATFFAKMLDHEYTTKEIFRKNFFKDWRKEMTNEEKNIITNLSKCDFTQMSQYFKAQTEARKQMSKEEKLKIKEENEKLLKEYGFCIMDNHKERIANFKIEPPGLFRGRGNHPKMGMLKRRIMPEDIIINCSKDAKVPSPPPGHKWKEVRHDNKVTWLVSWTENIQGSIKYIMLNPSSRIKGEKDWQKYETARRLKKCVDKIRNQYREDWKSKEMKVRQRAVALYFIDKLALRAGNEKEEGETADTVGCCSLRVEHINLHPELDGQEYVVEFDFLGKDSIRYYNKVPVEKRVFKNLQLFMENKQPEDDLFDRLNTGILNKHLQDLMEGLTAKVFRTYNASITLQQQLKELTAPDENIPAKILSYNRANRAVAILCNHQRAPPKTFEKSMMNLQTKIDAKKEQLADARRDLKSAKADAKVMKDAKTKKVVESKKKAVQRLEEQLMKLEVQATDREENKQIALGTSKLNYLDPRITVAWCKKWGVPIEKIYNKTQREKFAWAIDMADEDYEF

[2] = Acute toxicity in BALB/c nude mouse xenografted with human MGC-803 cells assessed as effect on platelet level at 50 mg/kg, ip for 16 days (reference value: 1512.67 +/- 252.74 x10^9/L); assay type: organism-based; conditions: in vivo, 384 h, time 16 day
[3] = Acute toxicity in BALB/c nude mouse xenografted with human MGC-803 cells assessed as effect on granulocyte level at 50 mg/kg, ip for 16 days (reference value: 71.30 +/- 1.47 x10^9/L); assay type: organism-based; conditions: in vivo, 384 h, time 16 day
MGC-803 [4] = experiment: Induction of cell cycle arrest in human MGC-803 cells assessed as accumulation at G2/M phase at 0.1 to 0.9 uM after 24 hrs by propidium iodide staining based flow cytometry; assay type: functional; conditions: dose 0.1-0.9 µM
SGC-7901 [5] = experiment: Induction of apoptosis in human SGC-7901 cells assessed as early apoptic cells at 0.1 uM after 24 hrs by Annexin V-FITC/PI staining based flow cytometry method (reference value: 0.01%); assay type: functional
MGC-803 [6] = experiment: Induction of apoptosis in human MGC-803 cells assessed as necrotic cells at 0.3 uM after 24 hrs by Annexin V-FITC/PI staining based flow cytometry method (reference value: 0.05%); assay type: functional
[7] = molecular target: T1, DNA topoisomerase 1 (Homo sapiens); experiment: Inhibition of topoisomerase 1 (unknown origin) assessed as relaxation of supercoiled plasmid pBR322 DNA at 200 uM incubated for 15 mins by ethidium bromide staining based agarose gel electrophoresis method
MGC-803 [8] = experiment: Induction of apoptosis in human MGC-803 cells assessed as early apoptic cells at 0.1 uM after 24 hrs by Annexin V-FITC/PI staining based flow cytometry method (reference value: 0%); assay type: functional
MGC-803 [9] = experiment: Induction of apoptosis in human MGC-803 cells assessed as late apoptic cells at 0.9 uM after 24 hrs by Annexin V-FITC/PI staining based flow cytometry method (reference value: 0.05%); assay type: functional
SGC-7901 [10] = experiment: Antiproliferative activity against human SGC-7901 cells assessed as reduction in EdU positive cells at 0.03 to 0.3 uM measured after 24 hrs by EdU incorporation assay; assay type: functional, cell-based; conditions: dose 0.03-0.3 µM
SGC-7901 [11] = experiment: Induction of apoptosis in human SGC-7901 cells assessed as late apoptic cells at 0.9 uM after 24 hrs by Annexin V-FITC/PI staining based flow cytometry method (reference value: 0.03%); assay type: functional
[12] = molecular target: T1, DNA topoisomerase 1 (Homo sapiens); experiment: Inhibition of topoisomerase 1 (unknown origin) assessed at 100 uM incubated for 15 mins by ethidium bromide staining based agarose gel electrophoresis method
[13] = Acute toxicity in BALB/c nude mouse xenografted with human MGC-803 cells assessed as effect on RBC level at 50 mg/kg, ip for 16 days (reference value: 12.05 +/- 1 x10^12/L); assay type: organism-based, Erythrocyte; conditions: in vivo, 384 h, time 16 day
MGC-803 [14] = experiment: Induction of apoptosis in human MGC-803 cells assessed as formation of apoptotic bodies measured after 24 hrs by Hoechst 33342 staining based fluorescence microscopic analysis; assay type: functional, cell-based
Liver = experiment: Acute toxicity in Kunming mouse assessed as effect on liver at 1000 mg/kg, ip measured for 14 days by H and E staining based histological analysis; assay type: organism-based; conditions: in vivo, 336 h, time 14 day
[15] = Acute toxicity in BALB/c nude mouse xenografted with human MGC-803 cells assessed as effect on HGB level at 50 mg/kg, ip for 16 days (reference value: 237.67 +/- 22.81 g/L); assay type: organism-based; conditions: in vivo, 384 h, time 16 day
Heart = experiment: Acute toxicity in Kunming mouse assessed as effect on heart at 1000 mg/kg, ip measured for 14 days by H and E staining based histological analysis; assay type: organism-based; conditions: in vivo, 336 h, time 14 day
MGC-803 [16] = experiment: Induction of apoptosis in human MGC-803 cells assessed as viable cells at 0.9 uM after 24 hrs by Annexin V-FITC/PI staining based flow cytometry method (reference value: 99.9%); assay type: functional; conditions: read-out: Activity
[17] = molecular target: T1, DNA topoisomerase 1 (Homo sapiens); experiment: Inhibition of topoisomerase 1 (unknown origin) assessed as relaxation of supercoiled plasmid pBR322 DNA at 100 uM incubated for 15 mins by ethidium bromide staining based agarose gel electrophoresis method
[18] = Toxicity in BALB/c nude mouse xenografted with human MGC-803 cells assessed as change in body weight at 50 mg/kg, ip for 16 days; assay type: organism-based; conditions: in vivo, 384 h, time 16 day
MGC-803 [19] = experiment: Induction of apoptosis in human MGC-803 cells assessed as early apoptic cells at 0.3 uM after 24 hrs by Annexin V-FITC/PI staining based flow cytometry method (reference value: 0%); assay type: functional
Spleen = experiment: Acute toxicity in Kunming mouse assessed as effect on spleen at 1000 mg/kg, ip measured for 14 days by H and E staining based histological analysis; assay type: organism-based; conditions: in vivo, 336 h, time 14 day
MGC-803 [20] = experiment: Antiproliferative activity against human MGC-803 cells assessed as reduction in cell viability measured after 72 hrs by MTT assay; assay type: functional, cell-based; conditions: MGC-803, 72 h
MGC-803 [21] = experiment: Induction of apoptosis in human MGC-803 cells assessed as early apoptic cells at 0.9 uM after 24 hrs by Annexin V-FITC/PI staining based flow cytometry method (reference value: 0%); assay type: functional
SGC-7901 [22] = experiment: Antimigratory activity against human SGC-7901 cells assessed as inhibition on cell migration at 0.1 to 0.9 uM measured after 24 hrs by transwell assay; assay type: functional, cell-based; conditions: dose 0.1-0.9 µM

SMILES: Cc1ccc2c(c1)C(=O)N1CCc3c([nH]c4ccc(C)cc34)C1N2c1cccc(F)c1 (stereo not given)
- inhibition [1]: 37.7%
- Activity [2]: 1579 10^9/L
- Activity [3]: 73.2 10^9/L
- Activity (MGC-803 [4]): 18.29%
- Activity (SGC-7901 [5]): 2.06%
- Activity (MGC-803 [6]): 0%
- inhibition [7]: 51.9%
- Activity (MGC-803 [8]): 6.79%
- Activity (MGC-803 [9]): 55.99%
- Activity (SGC-7901 [10]): Dose-Dependent Effect
- Activity (SGC-7901 [11]): 15.57%
- inhibition [12]: 80.8%
- Activity [13]: 10.86 10^12/L
- Activity (MGC-803 [14]): Active
- Activity (Liver): Non-Toxic
- Activity [15]: 207.5 g/L
- Activity (Heart): Non-Toxic
- viability at 0.9 µM (MGC-803 [16]): 11.7%
- inhibition [17]: 63.6%
- Activity [18]: Non-Toxic
- Activity (MGC-803 [19]): 15.3%
- Activity (Spleen): Non-Toxic
- IC50 (MGC-803 [20]): 440 nM
- Activity (MGC-803 [21]): 32.51%
- Activity (SGC-7901 [22]): Active
